Reference: publication PMC9248268 (Biochemical pharmacology, 2021)

Legend:
PTPRJ phosphatase = target: T1, PTPRJ phosphatase (Homo sapiens, UniProt Q12913); assay: inhibition of pNPP hydrolysis by recombinant PTPRJ phosphatase; format: biochemical
T1 sequence (Q12913 997-1337 limits assumed): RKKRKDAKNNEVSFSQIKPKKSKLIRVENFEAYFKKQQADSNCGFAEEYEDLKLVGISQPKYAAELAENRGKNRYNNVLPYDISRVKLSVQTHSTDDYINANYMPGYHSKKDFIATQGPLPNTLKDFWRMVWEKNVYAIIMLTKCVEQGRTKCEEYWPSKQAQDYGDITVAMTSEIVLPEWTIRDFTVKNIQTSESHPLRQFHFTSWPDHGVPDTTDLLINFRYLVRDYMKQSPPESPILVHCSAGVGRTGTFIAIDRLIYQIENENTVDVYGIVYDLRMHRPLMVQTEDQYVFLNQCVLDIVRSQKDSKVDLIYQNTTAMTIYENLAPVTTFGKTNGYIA

[1] = target: T2, recombinant human PTPRD phosphatase (Homo sapiens, UniProt P23468); conditions: cited from earlier work
T2 sequence (P23468 1357-1612 limits assumed): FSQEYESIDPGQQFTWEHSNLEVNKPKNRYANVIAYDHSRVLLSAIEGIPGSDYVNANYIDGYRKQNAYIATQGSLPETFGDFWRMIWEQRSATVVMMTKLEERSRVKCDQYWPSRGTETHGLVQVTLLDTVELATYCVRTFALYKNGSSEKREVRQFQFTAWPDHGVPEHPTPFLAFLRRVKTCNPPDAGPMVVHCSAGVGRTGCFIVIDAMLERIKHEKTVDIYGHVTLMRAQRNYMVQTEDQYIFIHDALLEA

PTPRS phosphatase [2] = target: T3, PTPRS phosphatase (Homo sapiens, UniProt Q13332); conditions: cited from earlier work
T3 sequence (Q13332 1393-1648 limits assumed): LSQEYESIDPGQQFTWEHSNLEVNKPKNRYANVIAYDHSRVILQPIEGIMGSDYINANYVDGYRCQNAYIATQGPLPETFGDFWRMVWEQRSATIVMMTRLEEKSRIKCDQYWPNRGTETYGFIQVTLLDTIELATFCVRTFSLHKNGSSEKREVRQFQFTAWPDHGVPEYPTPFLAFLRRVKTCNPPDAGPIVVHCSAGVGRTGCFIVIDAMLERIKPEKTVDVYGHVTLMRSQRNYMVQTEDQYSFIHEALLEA

PTPRF phosphatase [3] = conditions: cited from earlier work
[4] = acute ascending doses or 2-week repeated doses up to 20 mg/kg; cited from earlier work
[5] = target: T2, recombinant human PTPRD phosphatase; assay: inhibition of pNPP hydrolysis by recombinant PTPRD phosphatase
[6] = target: T4, PTPN1 (PTP1B) phosphatase (Homo sapiens, UniProt P18031); assay: inhibition of pNPP hydrolysis by recombinant PTPN1; format: biochemical
T4 sequence (P18031 1-435): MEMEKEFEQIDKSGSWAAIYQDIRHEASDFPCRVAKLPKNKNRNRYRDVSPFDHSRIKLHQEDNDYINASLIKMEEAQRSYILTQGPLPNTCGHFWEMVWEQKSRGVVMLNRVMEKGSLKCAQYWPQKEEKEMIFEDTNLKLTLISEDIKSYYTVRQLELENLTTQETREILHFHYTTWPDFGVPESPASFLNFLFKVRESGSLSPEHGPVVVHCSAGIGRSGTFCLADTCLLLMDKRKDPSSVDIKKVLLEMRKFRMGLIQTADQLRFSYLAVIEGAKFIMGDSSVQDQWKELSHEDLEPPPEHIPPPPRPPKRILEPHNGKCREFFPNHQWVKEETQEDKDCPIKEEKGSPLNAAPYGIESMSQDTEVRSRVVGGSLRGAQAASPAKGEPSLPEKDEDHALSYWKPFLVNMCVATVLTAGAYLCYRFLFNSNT

PTPRS phosphatase [7] = target: T3, PTPRS phosphatase; assay: inhibition of pNPP hydrolysis by recombinant PTPRS phosphatase; format: biochemical; conditions: relative to 7-BIA
PTPRF phosphatase [8] = assay: inhibition of pNPP hydrolysis by recombinant PTPRF phosphatase; format: biochemical; conditions: relative to 7-BIA
[9] = tested on: other protein tyrosine phosphatases screened; assay: screen at other protein tyrosine phosphatases; format: biochemical
[10] = tested on: sites of action (and side effects) of most marketed drugs; assay: EUROFINS assays for sites of action of marketed drugs; conditions: read-out: EC50 at EUROFINS sites of action of marketed drugs; any of these sites
[11] = absorption study, plasma levels in rats; format: in vivo; conditions: male, Sprague Dawley, rat, 10 mg/kg
[12] = oral tolerability study in mice; design: species or system wildtype C57BL/6J or PTPRD knockout mice; conditions: mouse, in vivo

CCCCOc1cc2c(c(C=O)c1OC)CC(O)OC2=O (centres unmarked) [compound 1, 7-butoxy illudalic acid analog]
potency at PTPRJ (in words) (PTPRJ phosphatase): moderate potencies | activity at PTPRD phosphatase (in words) [1]: active | potency of inhibition of PTPRD phosphatase dephosphorylation of p-NPP (in words) [1]: good potency | activity at PTPRS phosphatase (in words) (PTPRS phosphatase [2]): active | activity at PTPRF phosphatase (in words) (PTPRF phosphatase [3]): active | toxicities in mice (in words) [4]: no apparent toxicities

CCCCOc1cc2c(=O)occc2c(C=O)c1OC [compound 22]
activity at PTPRD (in words) [5]: activity was lost

CCCCOc1cc2c(c(C=O)c1OCC)CC(O)OC2=O (centres unmarked) [compound 23]
activity at PTPRD (in words) [5]: activity was lost

CCCCOc1cc2c(c(C=O)c1OCCCC)CC(O)OC2=O (centres unmarked) [compound 24]
activity at PTPRD (in words) [5]: activity was lost

COc1cccc(COc2cc3c(c(C=O)c2OC)CC(O)OC3=O)c1 (centres unmarked) [compound 30, 3-Hydroxy-6-methoxy-7-((3-methoxybenzyl)oxy)-1-oxoisochromane-5-carbaldehyde]
activity at PTPRD (in words) [5]: no improvement in PTPRD activity

COc1ccccc1COc1cc2c(c(C=O)c1OC)CC(O)OC2=O (centres unmarked) [compound 31]
activity at PTPRD (in words) [5]: no improvement in PTPRD activity

COc1c(OCc2ccc(Oc3ccccc3)cc2)cc2c(c1C=O)CC(O)OC2=O (centres unmarked) [compound 40, 3-Hydroxy-6-methoxy-1-oxo-7-((4-phenoxybenzyl)oxy)isochromane-5-carbaldehyde]
potency in inhibiting PTPN1/PTP1B (in words) [6]: relatively high potency

COc1c(OCC2CCCC2)cc2c(c1C=O)CC(O)OC2=O (centres unmarked) [compound 58, 7-Cyclopentylmethoxy-3-hydroxy-6-methoxy-1-oxo-isochroman-5-carbaldehyde]
greater selectivity for PTPRD vs PTPRS than 7-BIA (PTPRS phosphatase [7]): 1.6 fold | greater selectivity for PTPRD vs PTPRF than 7-BIA (PTPRF phosphatase [8]): 1.4 fold | greater selectivity for PTPRD vs PTPRJ than 7-BIA (PTPRJ phosphatase; relative to 7-BIA): 3.5 fold | greater selectivity for PTPRD vs PTPN1/PTP1B than 7-BIA ([6]; relative to 7-BIA): 1.8 fold | potency at other protein tyrosine phosphatases screened (in words) [9]: no substantial potency | EC50 [10]: ≥ 100 µM | half-life [11]: ~50 min | concentration at 30 min ([11]; ip): 577 ng/g | concentration at 120 min ([11]; ip): 10.3 ng/g | concentration at 240 min ([11]; ip): 1.84 ng/g | concentration at 5 min ([11]; iv): 24600 ng/g | concentration at 30 min ([11]; iv): 92.6 ng/g | concentration at 240 min ([11]; iv): 1.03 ng/g | concentration at 30 min ([11]; po): 82.4 ng/g | concentration at 120 min ([11]; po): 24.2 ng/g | concentration at 240 min ([11]; po): 4.62 ng/g | weight lost ([12]; 200 mg/kg): 1.3 g | weight lost ([12]; 400 mg/kg): 3.4 g | weight lost ([12]; 600 mg/kg): 1.1 g | weight lost ([12]; 1000 mg/kg): 9 g
